Legend:
[1] = target: Cbl-b (Homo sapiens (Human), UniProt Q13191); assay: Cbl-b LCK Ub TR-FRET assay (Cbl-b Lck HTRF); type: biochemical; details: for IC50: Cbl-b LCK Ub TR-FRET; for fold-selectivity (Cbl-b over C-cbl): ratio C-cbl Lck HTRF IC50 / Cbl-b Lck HTRF IC50
Outline: (§1)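 After the ubiquitination reaction, detection mixture was added and plates incubated 20 min at room temperature before reading. IC50 values were calculated with wells lacking LCK as the low control and DMSO as the high control.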

[2] = target: c-Cbl (Homo sapiens (Human), UniProt P22681); assay: C-Cbl LCK Ub TR-FRET assay (C-cbl Lck HTRF); type: biochemical
Outline: as §1

Chain of Cbl-b (Q13191 40-426): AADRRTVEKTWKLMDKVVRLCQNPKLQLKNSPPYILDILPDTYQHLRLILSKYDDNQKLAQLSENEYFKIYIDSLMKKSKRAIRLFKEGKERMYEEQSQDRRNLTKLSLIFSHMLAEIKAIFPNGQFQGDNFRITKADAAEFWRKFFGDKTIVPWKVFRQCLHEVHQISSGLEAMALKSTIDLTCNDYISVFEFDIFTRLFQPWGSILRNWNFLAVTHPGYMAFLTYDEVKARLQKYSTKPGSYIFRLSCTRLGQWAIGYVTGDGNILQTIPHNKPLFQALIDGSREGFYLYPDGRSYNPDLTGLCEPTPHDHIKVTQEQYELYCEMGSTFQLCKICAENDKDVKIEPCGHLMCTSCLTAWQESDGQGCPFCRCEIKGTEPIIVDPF
Chain of c-Cbl (P22681 47-435): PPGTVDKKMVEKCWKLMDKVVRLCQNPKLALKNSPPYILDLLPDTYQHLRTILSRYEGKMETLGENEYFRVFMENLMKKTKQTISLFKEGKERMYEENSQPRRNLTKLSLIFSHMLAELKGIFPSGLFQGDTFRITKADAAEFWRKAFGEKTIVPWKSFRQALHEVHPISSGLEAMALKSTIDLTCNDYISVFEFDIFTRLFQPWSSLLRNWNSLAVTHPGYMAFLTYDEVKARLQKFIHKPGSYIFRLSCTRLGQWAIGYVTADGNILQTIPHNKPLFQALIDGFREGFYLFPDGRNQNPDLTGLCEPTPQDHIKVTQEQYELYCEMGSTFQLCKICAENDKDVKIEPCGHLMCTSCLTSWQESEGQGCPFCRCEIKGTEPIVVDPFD

Row | SMILES | IC50 [1] [µM] | fold-selectivity (Cbl-b over C-cbl) [1] [x] | IC50 [2] [µM]
1 | Cn1cnnc1[C@H](CC1(C)COC1)c1cccc(N2Cc3c(cc(CNC4(C)CCC4)cc3C(F)(F)F)C2=O)c1 [Compound 254, (R)-2-(3-(1-(4-methyl-4H-1,2,4-triazol-3-yl)-2-(3-methyloxetan-3-yl)ethyl)phenyl)-6-(((1-methylcyclobutyl)amino)methyl)-4-(trifluoromethyl)isoindolin-1-one] | ≥ 20 | 1.0 | 20
2 | Cn1cnnc1[C@@H](CC1(C)COC1)c1cccc(N2Cc3c(cc(CNC4(C)CCC4)cc3C(F)(F)F)C2=O)c1 [Compound 255, (S)-2-(3-(1-(4-methyl-4H-1,2,4-triazol-3-yl)-2-(3-methyloxetan-3-yl)ethyl)phenyl)-6-(((1-methylcyclobutyl)amino)methyl)-4-(trifluoromethyl)isoindolin-1-one] | 0.76 | 1.3 | 0.99
3 | Cn1cnnc1[C@H](CC1CCC1)c1cccc(N2Cc3c(cc(CNC4(C)CCC4)cc3C(F)(F)F)C2=O)c1 [Compound 268, (R)-2-(3-(2-cyclobutyl-1-(4-methyl-4H-1,2,4-triazol-3-yl)ethyl)phenyl)-6-(((1-methylcyclobutyl)amino)methyl)-4-(trifluoromethyl)isoindolin-1-one] | 1.7 | 1.6 | 2.7
4 | Cn1cnnc1[C@@H](CC1CCC1)c1cccc(N2Cc3c(cc(CNC4(C)CCC4)cc3C(F)(F)F)C2=O)c1 [Compound 269, (S)-2-(3-(2-cyclobutyl-1-(4-methyl-4H-1,2,4-triazol-3-yl)ethyl)phenyl)-6-(((1-methylcyclobutyl)amino)methyl)-4-(trifluoromethyl)isoindolin-1-one] | 0.076 | 4.0 | 0.3
5 | Cn1cnnc1[C@H](C[C@@H]1CCOC1)c1cccc(N2Cc3c(cc(CNC4(C)CCC4)cc3C(F)(F)F)C2=O)c1 [Compound 275, 2-(3-((R)-1-(4-methyl-4H-1,2,4-triazol-3-yl)-2-((R)-tetrahydrofuran-3-yl)ethyl)phenyl)-6-(((1-methylcyclobutyl)amino)methyl)-4-(trifluoromethyl)isoindolin-1-one] | ≥ 20 | 1.0 | 20
6 | Cn1cnnc1[C@@H](C[C@@H]1CCOC1)c1cccc(N2Cc3c(cc(CNC4(C)CCC4)cc3C(F)(F)F)C2=O)c1 [Compound 276, 2-(3-((S)-1-(4-methyl-4H-1,2,4-triazol-3-yl)-2-((R)-tetrahydrofuran-3-yl)ethyl)phenyl)-6-(((1-methylcyclobutyl)amino)methyl)-4-(trifluoromethyl)isoindolin-1-one] | ≥ 20 | 1.0 | 20
7 | C[C@@H](NC1(C)CCC1)c1cc2c(c(C(F)(F)F)c1)CN(c1cccc(C(c3nncn3C)C3COC3)c1)C2=O (stereo partly drawn) [Compound 284, 2-(3-((4-methyl-4H-1,2,4-triazol-3-yl)(oxetan-3-yl)methyl)phenyl)-6-((R)-1-((1-methylcyclobutyl)amino)ethyl)-4-(trifluoromethyl)isoindolin-1-one] | 0.51 | 7.3 | 3.7
8 | Cn1cnnc1[C@H](CC1CCS(=O)(=O)CC1)c1cccc(N2Cc3c(cc(CNC4(C)CCC4)cc3C(F)(F)F)C2=O)c1 [Compound 286, (R)-2-(3-(2-(1,1-dioxidotetrahydro-2H-thiopyran-4-yl)-1-(4-methyl-4H-1,2,4-triazol-3-yl)ethyl)phenyl)-6-(((1-methylcyclobutyl)amino)methyl)-4-(trifluoromethyl)isoindolin-1-one] | ≥ 20 | 1.0 | 20
9 | Cn1cnnc1[C@@H](CC1CCS(=O)(=O)CC1)c1cccc(N2Cc3c(cc(CNC4(C)CCC4)cc3C(F)(F)F)C2=O)c1 [Compound 287, (S)-2-(3-(2-(1,1-dioxidotetrahydro-2H-thiopyran-4-yl)-1-(4-methyl-4H-1,2,4-triazol-3-yl)ethyl)phenyl)-6-(((1-methylcyclobutyl)amino)methyl)-4-(trifluoromethyl)isoindolin-1-one] | ≥ 20 | 1.0 | 20
10 | Cn1cnnc1[C@@H](c1cccc(N2Cc3c(cc(CNC4(C)CCC4)cc3C(F)(F)F)C2=O)c1)C1CCOCC1 [Compound 290, (R)-2-(3-((4-methyl-4H-1,2,4-triazol-3-yl)(tetrahydro-2H-pyran-4-yl)methyl)phenyl)-6-(((1-methylcyclobutyl)amino)methyl)-4-(trifluoromethyl)isoindolin-1-one] | 13 | 1.5 | 20
11 | Cn1cnnc1[C@@H](C[C@@H]1COCCO1)c1cccc(N2Cc3c(cc(CNC4(C)CCC4)cc3C(F)(F)F)C2=O)c1 [Compound 296, 2-(3-((S)-2-((R)-1,4-dioxan-2-yl)-1-(4-methyl-4H-1,2,4-triazol-3-yl)ethyl)phenyl)-6-(((1-methylcyclobutyl)amino)methyl)-4-(trifluoromethyl)isoindolin-1-one] | 8 | 2.0 | 16
12 | Cn1cnnc1[C@@H](c1cccc(N2Cc3c(cc(CNC4(C)CCC4)cc3C(F)(F)F)C2=O)c1)C1CCS(=O)(=O)CC1 [Compound 299, (R)-2-(3-((1,1-dioxidotetrahydro-2H-thiopyran-4-yl)(4-methyl-4H-1,2,4-triazol-3-yl)methyl)phenyl)-6-(((1-methylcyclobutyl)amino)methyl)-4-(trifluoromethyl)isoindolin-1-one] | 2.5 | 1.5 | 3.8
13 | Cn1cnnc1[C@H](c1cccc(N2Cc3c(cc(CNC4(C)CCC4)cc3C(F)(F)F)C2=O)c1)C1CCS(=O)(=O)CC1 [Compound 300, (S)-2-(3-((1,1-dioxidotetrahydro-2H-thiopyran-4-yl)(4-methyl-4H-1,2,4-triazol-3-yl)methyl)phenyl)-6-(((1-methylcyclobutyl)amino)methyl)-4-(trifluoromethyl)isoindolin-1-one] | 8.7 | 2.0 | 17
14 | Cn1cnnc1[C@H](c1cccc(N2Cc3c(cc(CNC4(C)CCC4)cc3C(F)F)C2=O)c1)C1COC1 [Compound 304, (S)-4-(difluoromethyl)-2-(3-((4-methyl-4H-1,2,4-triazol-3-yl)(oxetan-3-yl)methyl)phenyl)-6-(((1-methylcyclobutyl)amino)methyl)isoindolin-1-one] | 7.8 | 2.6 | 20
15 | Cn1cnnc1[C@](C)(O)c1cccc(N2Cc3c(cc(CNC4(C)CCC4)cc3C(F)(F)F)C2=O)c1 [Compound 305, (R)-2-(3-(1-hydroxy-1-(4-methyl-4H-1,2,4-triazol-3-yl)ethyl)phenyl)-6-(((1-methylcyclobutyl)amino)methyl)-4-(trifluoromethyl)isoindolin-1-one] | ≥ 20 | 1.0 | 20
16 | Cn1cnnc1[C@](O)(c1cccc(N2Cc3c(cc(CNC4(C)CCC4)cc3C(F)(F)F)C2=O)c1)C(F)(F)F [Compound 307, (R)-6-(((1-methylcyclobutyl)amino)methyl)-2-(3-(2,2,2-trifluoro-1-hydroxy-1-(4-methyl-4H-1,2,4-triazol-3-yl)ethyl)phenyl)-4-(trifluoromethyl)isoindolin-1-one] | 7.6 | 1.5 | 12
17 | CC(C)[C@@](O)(c1cccc(N2Cc3c(cc(CNC4(C)CCC4)cc3C(F)(F)F)C2=O)c1)c1nncn1C [Compound 309, (R)-2-(3-(1-hydroxy-2-methyl-1-(4-methyl-4H-1,2,4-triazol-3-yl)propyl)phenyl)-6-(((1-methylcyclobutyl)amino)methyl)-4-(trifluoromethyl)isoindolin-1-one] | 5.3 | 3.8 | 20
18 | CC[C@H](NC1(C)CCC1)c1cc2c(c(C(F)(F)F)c1)CN(c1cccc([C@@H](c3nncn3C)C3COC3)c1)C2=O [Compound 315, 2-(3-((S)-(4-methyl-4H-1,2,4-triazol-3-yl)(oxetan-3-yl)methyl)phenyl)-6-((S)-1-((1-methylcyclobutyl)amino)propyl)-4-(trifluoromethyl)isoindolin-1-one] | 6.8 | 2.0 | 20
19 | Cn1cnnc1[C@]1(c2cccc(N3Cc4c(cc(CNC5(C)CCC5)cc4C(F)(F)F)C3=O)c2)C[C@@H](S(C)(=O)=O)C1 [Compound 325, 2-(3-((1r,3r)-1-(4-methyl-4H-1,2,4-triazol-3-yl)-3-(methylsulfonyl)cyclobutyl)phenyl)-6-(((1-methylcyclobutyl)amino)methyl)-4-(trifluoromethyl)isoindolin-1-one] | 11 | 1.9 | 20
20 | Cn1cnnc1[C@]1(c2cccc(N3Cc4c(cc(CNC5(C)CCC5)cc4C(F)(F)F)C3=O)c2)C[C@H](S(C)(=O)=O)C1 [Compound 326, 2-(3-((1s,3s)-1-(4-methyl-4H-1,2,4-triazol-3-yl)-3-(methylsulfonyl)cyclobutyl)phenyl)-6-(((1-methylcyclobutyl)amino)methyl)-4-(trifluoromethyl)isoindolin-1-one] | 16 | 1.2 | 20
21 | Cn1cnnc1[C@]1(c2cccc(N3Cc4c(cc(CNC5(C)CCC5)cc4C(F)(F)F)C3=O)c2)C[C@H](OC(F)(F)F)C1 [Compound 350, 2-(3-((1s,3s)-1-(4-methyl-4H-1,2,4-triazol-3-yl)-3-(trifluoromethoxy)cyclobutyl)phenyl)-6-(((1 methylcyclobutyl)amino)methyl)-4-(trifluoromethyl)isoindolin-1-one] | 0.016 | 4.8 | 0.077

— patent publication US12187709B2 (Genentech, Inc., priority 2021, dated 2025)
